The first experiment addresses T1, 3-oxo-5-alpha-steroid 4-dehydrogenase 2 (Homo sapiens, UniProt P31213).
T1 sequence (P31213 whole entry): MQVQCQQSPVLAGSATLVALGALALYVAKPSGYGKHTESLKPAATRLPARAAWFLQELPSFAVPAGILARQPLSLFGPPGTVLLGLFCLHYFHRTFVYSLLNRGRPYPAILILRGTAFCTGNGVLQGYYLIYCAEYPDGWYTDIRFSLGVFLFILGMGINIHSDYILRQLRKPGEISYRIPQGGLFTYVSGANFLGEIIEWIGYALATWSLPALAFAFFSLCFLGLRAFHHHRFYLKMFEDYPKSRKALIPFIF
As to the kind of experiment: Inhibitory concentration against human steroid 5-alpha-reductase 2 receptor expressed in CHO 1829 cells. In kind it is cell-based.
Take `COC(=O)c1ccc2c(c1)CCC1=C(C)C(=O)CCN12`: inhibition was half-maximal at 2100 nM (IC50).

`COC(=O)c1cccc(OC(=O)c2ccc3c(c2)CCC2=C(C)C(=O)CCN23)c1`: the half-inhibitory concentration (IC50) (commonly the concentration needed to halve the response being measured) was determined as 467 nM.

On to `CC1=C2CCc3cc(C(=O)Oc4ccc(N)cc4)ccc3N2CCC1=O`, for which the half-maximal inhibitory concentration (IC50) is 801 nM.

Molecule `CC1=C2CCc3cc(C(=O)Oc4ccccc4)ccc3N2CCC1=O` came in with a concentration for half-maximal inhibition (IC50) of 295 nM.

Turning to `CCN(CC)C(=O)c1ccc(OC(=O)c2ccc3c(c2)CCC2=C(C)C(=O)CCN23)cc1`, it took 372 nM to reach half-maximal inhibition (IC50).

Molecule `CC1=C2CCc3cc(C(=O)Oc4ccccc4F)ccc3N2CCC1=O` gave an IC50 of 166 nM. This IC50 lies about 2.2-fold lower than the previous one.

In turn, `CC(=O)Nc1ccc(OC(=O)c2ccc3c(c2)CCC2=C(C)C(=O)CCN23)cc1` came in with an IC50 of 255 nM.

The molecule `CC1=C2CCc3cc(C(=O)OCc4ccccc4)ccc3N2CCC1=O` yielded an IC50 of 9500 nM.

Turning to `COC(=O)c1ccc(OC(=O)c2ccc3c(c2)CCC2=C(C)C(=O)CCN23)cc1`, it took 584 nM to reach half-maximal inhibition (IC50).

As for `CC1=C2CCc3cc(C(=O)Oc4ccc(C)cc4)ccc3N2CCC1=O`, the half-maximal inhibitory concentration (IC50) was found to be 553 nM.

In turn, `CC1=C2CCc3cc(C(=O)Oc4ccccc4C(F)(F)F)ccc3N2CCC1=O` displayed an IC50 of 368 nM.

`CCOc1ccc(OC(=O)c2ccc3c(c2)CCC2=C(C)C(=O)CCN23)cc1` gave an IC50 of 3300 nM.

In turn, `CC1=C2CCc3cc(C(=O)OC(C)C)ccc3N2CCC1=O` returned a half-maximal inhibitory concentration (IC50) of less than 50 nM.

`CC1=C2CCc3cc(C(=O)Oc4cccc(C(F)(F)F)c4)ccc3N2CCC1=O`: the IC50 came to 1000 nM.

In the case of `CC1=C2CCc3cc(C(=O)Oc4ccc(C(N)=O)cc4)ccc3N2CCC1=O`, the half-maximal inhibitory concentration (IC50) is 308 nM.

`CCCNC(=O)c1ccc(OC(=O)c2ccc3c(c2)CCC2=C(C)C(=O)CCN23)cc1` registered an IC50 of 665 nM.

Turning to `COc1ccc(OC(=O)c2ccc3c(c2)CCC2=C(C)C(=O)CCN23)cc1`, the half-maximal inhibitory concentration (IC50) amounted to 1200 nM.

`CC1=C2CCc3cc(C(=O)Oc4ccc(F)cc4)ccc3N2CCC1=O`: the IC50 turned out to be 119 nM.

Take `CC1=C2CCc3cc(C(=O)Oc4cccc(F)c4)ccc3N2CCC1=O`: the 50% inhibitory concentration (IC50) was 134 nM.

Molecule `CCOC(=O)c1ccc2c(c1)CCC1=C(C)C(=O)CCN12` registered an IC50 of 4800 nM.

In turn, `CC1=C2CCc3cc(C(=O)Oc4ccc(C(F)(F)F)cc4)ccc3N2CCC1=O` gave a 50% inhibitory concentration (IC50) of 1200 nM.

The target of the next experiment is T2, 3-oxo-5-alpha-steroid 4-dehydrogenase 1 (Homo sapiens, UniProt P18405).
T2 sequence (P18405 whole entry): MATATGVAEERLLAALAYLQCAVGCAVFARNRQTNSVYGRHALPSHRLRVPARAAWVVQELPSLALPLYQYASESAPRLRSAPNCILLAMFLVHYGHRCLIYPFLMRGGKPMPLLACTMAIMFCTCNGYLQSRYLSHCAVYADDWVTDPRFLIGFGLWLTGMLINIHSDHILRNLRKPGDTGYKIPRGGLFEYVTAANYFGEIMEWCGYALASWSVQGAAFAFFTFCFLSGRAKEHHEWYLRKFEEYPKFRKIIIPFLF
In words: Inhibitory concentration against human steroid 5-alpha-reductase I receptor expressed in CHO 1827 cells. In kind it is cell-based.
The molecule `CC1=C2CCc3cc(C(=O)Oc4ccc(C(=O)NC(C)(C)C)cc4)ccc3N2CCC1=O` returned a half-inhibitory concentration (IC50) of 225 nM.

`CC1=C2CCc3cc(C(=O)Oc4ccc(N)cc4)ccc3N2CCC1=O`: the IC50 was found to be 272 nM. This IC50 and that of the molecule before are within 1.5-fold of each other.

The molecule `CCN(CC)C(=O)c1ccc(OC(=O)c2ccc3c(c2)CCC2=C(C)C(=O)CCN23)cc1` came in with an IC50 of 463 nM.

In turn, `CC1=C2CCc3cc(C(=O)Oc4ccccc4F)ccc3N2CCC1=O` displayed a 50% inhibitory concentration (IC50) of 138 nM.

`CC(=O)Nc1ccc(OC(=O)c2ccc3c(c2)CCC2=C(C)C(=O)CCN23)cc1` had an IC50 of 707 nM.

In the case of `COC(=O)c1ccc(OC(=O)c2ccc3c(c2)CCC2=C(C)C(=O)CCN23)cc1`, the IC50 was 129 nM.

In turn, `CC1=C2CCc3cc(C(=O)Oc4ccc(C)cc4)ccc3N2CCC1=O` gave an IC50 of 102 nM. The IC50 values of the last two molecules are within 1.5-fold of each other.

For the molecule `CC1=C2CCc3cc(C(=O)Oc4ccccc4C(F)(F)F)ccc3N2CCC1=O`, the IC50 came to 42 nM. This IC50 lies about 2.4-fold lower than the previous one.

`CCOc1ccc(OC(=O)c2ccc3c(c2)CCC2=C(C)C(=O)CCN23)cc1` had a half-inhibitory concentration (IC50) of 209 nM. This IC50 lies about 5-fold higher than the previous one.

On to `CC1=C2CCc3cc(C(=O)Oc4cccc(C(F)(F)F)c4)ccc3N2CCC1=O`, for which half-maximal inhibition (IC50) was put at 271 nM.

`CC1=C2CCc3cc(C(=O)Oc4ccc(C(N)=O)cc4)ccc3N2CCC1=O` returned an IC50 of 361 nM.

The molecule `CCCNC(=O)c1ccc(OC(=O)c2ccc3c(c2)CCC2=C(C)C(=O)CCN23)cc1` registered an IC50 of 268 nM.

For the molecule `CC1=C2CCc3cc(C(=O)Nc4ccc(C)cc4)ccc3N2CCC1=O`, the midpoint of inhibition, the IC50, lay at 1000 nM.

On to `COc1ccc(OC(=O)c2ccc3c(c2)CCC2=C(C)C(=O)CCN23)cc1`, for which the IC50 worked out at 116 nM. This IC50 is about 8.6-fold lower than that of the molecule before.

As for `CC1=C2CCc3cc(C(=O)Oc4ccc(F)cc4)ccc3N2CCC1=O`, the half-maximal inhibitory concentration (IC50) was 93 nM.

For the molecule `CC1=C2CCc3cc(C(=O)Oc4cccc(F)c4)ccc3N2CCC1=O`, inhibition was half-maximal at 160 nM (IC50).

As to `CC1=C2CCc3cc(C(=O)OCCCO)ccc3N2CCC1=O`, half-maximal inhibition (IC50) was put at 6990 nM. This IC50 is about 44-fold higher than that of the molecule before.

In the case of `CC1=C2CCc3cc(C(=O)Oc4ccc(C(F)(F)F)cc4)ccc3N2CCC1=O`, the 50% inhibitory concentration (IC50) amounted to 149 nM. This IC50 is about 47-fold lower than that of the molecule before.

As to `CC1=C2CCc3cc(C(=O)Oc4ccc(Cl)cc4)ccc3N2CCC1=O`, the 50% inhibitory concentration (IC50) was found to be 1400 nM.

The target in another experiment is T1, 3-oxo-5-alpha-steroid 4-dehydrogenase 2. As to the kind of experiment: Inhibitory concentration against human steroid 5-alpha-reductase 2 receptor expressed in CHO 1829 cells; la= low activity. In kind it is cell-based.
With `CC1=C2CCc3cc(C(=O)Oc4ccc(C(=O)NC(C)(C)C)cc4)ccc3N2CCC1=O`, the IC50 entry is given as “Low activity”.

Turning to `CCN(CC)C(=O)c1ccc2c(c1)CCC1=C(C)C(=O)CCN12`, the IC50 entry is “Low activity”.

With `CC1=C2CCc3cc(C(=O)NC(C)(C)C)ccc3N2CCC1=O`, the IC50 result is “Low activity”.

`CC1=C2CCc3cc(C(=O)N(C(C)C)C(C)C)ccc3N2CCC1=O`: the IC50 result is listed as “Low activity”.

`CC1=C2CCc3cc(C(=O)Nc4ccc(C)cc4)ccc3N2CCC1=O`: the half-inhibitory concentration (IC50) result is recorded as “Low activity”.

With `CC1=C2CCc3cc(C(=O)Oc4ccc(C(C)(C)C)cc4)ccc3N2CCC1=O`, the half-maximal inhibitory concentration (IC50) entry is given as “Low activity”.

With `CC1=C2CCc3cc(C(=O)OC(C)(C)C)ccc3N2CCC1=O`, the IC50 entry is “Low activity”.

Consider `CC1=C2CCc3cc(C(=O)OCCCO)ccc3N2CCC1=O`, for which the IC50 entry is recorded as “Low activity”.

`CC1=C2CCc3cc(C(=O)Oc4ccc(Cl)cc4)ccc3N2CCC1=O`: the IC50 entry is given as “Low activity”.

In another experiment the target is T2, 3-oxo-5-alpha-steroid 4-dehydrogenase 1. In words: Inhibitory concentration against human steroid 5-alpha-reductase I receptor expressed in CHO 1827 cells; la= low activity. In kind it is cell-based.
As to `CCN(CC)C(=O)c1ccc2c(c1)CCC1=C(C)C(=O)CCN12`, the IC50 result was “Low activity”.

`CC1=C2CCc3cc(C(=O)NC(C)(C)C)ccc3N2CCC1=O`: the IC50 result is reported as “Low activity”.

Take `CC1=C2CCc3cc(C(=O)N(C(C)C)C(C)C)ccc3N2CCC1=O`: the IC50 entry is “Low activity”.

For the origin of these results see ChEMBL document CHEMBL1145142, “Synthesis and activity of 8-substituted benzo[c]quinolizin-3-ones as dual inhibitors of human 5alpha-reductases 1 and 2” (Bioorg Med Chem Lett, 2005).
